From PubChem BioAssay AID2060627 (Molecular Pharmacology Branch, DTP, NCI, 2025)
“And” between values parts separate entries of the source, which are not always exact repeats. Equal entries are not always repeated. Blank lines part the entries; values can stand above or below the compound they belong to.

Tested on: 156681-154-R-J1-PDC complex spheroid viability
Assay: Anticancer human tumor 156681-154-R-J1-PDC patient-derived melanoma cell line growth inhibition [CLK]
Conditions: for viability, T/C: stronger effect = lower value
Summary of the method: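 Patient-derived tumor cells grown as complex spheroids with HUVEC endothelial cells and mesenchymal stem cells, treated with drug combinations. Concentrations descend in half-log steps from near clinical Cmax, or from 10 microM if Cmax unknown.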

[1] = curve of first compound, second compound 0.0316 µM
[2] = curve of first compound, second compound 0.1 µM
[3] = curve of first compound, second compound 0.316 µM
[4] = curve of first compound, second compound 1 µM
[5] = curve of first compound, second compound 3.16 µM
[6] = curve of first compound, second compound 10 µM
[7] = second compound 0.0316 µM, first compound 0.0316 µM
[8] = second compound 0.0316 µM, first compound 0.1 µM
[9] = second compound 0.0316 µM, first compound 0.316 µM
[10] = second compound 0.0316 µM, first compound 1 µM
[11] = second compound 0.0316 µM, first compound 3.16 µM
[12] = second compound 0.0316 µM, first compound 10 µM
[13] = second compound 0.1 µM, first compound 0.0316 µM
[14] = second compound 0.1 µM, first compound 0.1 µM
[15] = second compound 0.1 µM, first compound 0.316 µM
[16] = second compound 0.1 µM, first compound 1 µM
[17] = second compound 0.1 µM, first compound 3.16 µM
[18] = second compound 0.1 µM, first compound 10 µM
[19] = second compound 0.316 µM, first compound 0.0316 µM
[20] = second compound 0.316 µM, first compound 0.1 µM
[21] = second compound 0.316 µM, first compound 0.316 µM
[22] = second compound 0.316 µM, first compound 1 µM
[23] = second compound 0.316 µM, first compound 3.16 µM
[24] = second compound 0.316 µM, first compound 10 µM
[25] = second compound 1 µM, first compound 0.0316 µM
[26] = second compound 1 µM, first compound 0.1 µM
[27] = second compound 1 µM, first compound 0.316 µM
[28] = second compound 1 µM, first compound 1 µM
[29] = second compound 1 µM, first compound 3.16 µM
[30] = second compound 1 µM, first compound 10 µM
[31] = second compound 3.16 µM, first compound 0.0316 µM
[32] = second compound 3.16 µM, first compound 0.1 µM
[33] = second compound 3.16 µM, first compound 0.316 µM
[34] = second compound 3.16 µM, first compound 1 µM
[35] = second compound 3.16 µM, first compound 3.16 µM
[36] = second compound 3.16 µM, first compound 10 µM
[37] = second compound 10 µM, first compound 0.0316 µM
[38] = second compound 10 µM, first compound 0.1 µM
[39] = second compound 10 µM, first compound 0.316 µM
[40] = second compound 10 µM, first compound 1 µM
[41] = second compound 10 µM, first compound 3.16 µM
[42] = second compound 10 µM, first compound 10 µM
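Note: spheroids exposed to the agents for seven days.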
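Throughout, for viability, T/C: 100% = DMSO vehicle control viability.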

SMILES: CCCS(=O)(=O)Nc1ccc(F)c(C(=O)c2c[nH]c3ncc(-c4ccc(Cl)cc4)cc23)c1F + CN1CCN(c2cc(C(=O)Nc3cc4cc(-c5cnn(C)c5)ccc4cn3)ccn2)CC1
- IC50 [1]: 6050 nM
- IC50 [2]: 4960 nM
- IC50 [3]: < 31.6 nM
- IC50 [4]: < 31.6 nM
- IC50 [5]: < 31.6 nM
- IC50 [6]: < 31.6 nM
- viability, T/C [7]: 95.2%
- viability, T/C [8]: 88.7%
- viability, T/C [9]: 104%
- viability, T/C [10]: 94.7%
- viability, T/C [11]: 99.7%
- viability, T/C [12]: 13.9%
- viability, T/C [13]: 88.3%
- viability, T/C [14]: 80.8%
- viability, T/C [15]: 76.7%
- viability, T/C [16]: 85%
- viability, T/C [17]: 74.8%
- viability, T/C [18]: 11.3%
- viability, T/C [19]: 25.4%
- viability, T/C [20]: 19.6%
- viability, T/C [21]: 28.6%
- viability, T/C [22]: 29.9%
- viability, T/C [23]: 24.9%
- viability, T/C [24]: 3.74%
- viability, T/C [25]: 0.19%
- viability, T/C [26]: 0.44%
- viability, T/C [27]: 0.19%
- viability, T/C [28]: 0.14%
- viability, T/C [29]: 0.12%
- viability, T/C [30]: 0.13%
- viability, T/C [31]: 0.3%
- viability, T/C [32]: 0.48%
- viability, T/C [33]: 0.11%
- viability, T/C [34]: 0.27%
- viability, T/C [35]: 3.96%
- viability, T/C [36]: 0.11%
- viability, T/C [37]: 0.13%
- viability, T/C [38]: 1.59%
- viability, T/C [39]: 0.27%
- viability, T/C [40]: 0.21%
- viability, T/C [41]: 3.86%
- viability, T/C [42]: 0.17%

SMILES: C=C(F)C(=O)N1CCN(c2nc(OCC3CCCN3C)nc3c2CCN(c2cccc4cccc(Cl)c24)C3)CC1CC#N (stereo not given)
- viability, T/C (compound 0.0316 µM): 62.4% and 97.8%
- viability, T/C (compound 0.1 µM): 68.8% and 78%
- viability, T/C (compound 0.316 µM): 85% and 95.9%
- viability, T/C (compound 1 µM): 51.9% and 90.4%
- viability, T/C (compound 3.16 µM): 11.4% and 28.5%
- viability, T/C (compound 10 µM): 1.93% and 0.2%
- IC50 (curve of compound): 1100 nM and 2120 nM

SMILES: C=CC(=O)N1CCN(c2nc(=O)n(-c3c(C)ccnc3C(C)C)c3nc(-c4c(O)cccc4F)c(F)cc23)C(C)C1 (stereo not given) + CN1CCN(c2cc(C(=O)Nc3cc4cc(-c5cnn(C)c5)ccc4cn3)ccn2)CC1
- IC50 [1]: > 10000 nM
- IC50 [2]: > 10000 nM
- IC50 [3]: < 31.6 nM
- IC50 [4]: < 31.6 nM
- IC50 [5]: < 31.6 nM
- IC50 [6]: < 31.6 nM
- viability, T/C [7]: 97.3%
- viability, T/C [8]: 88%
- viability, T/C [9]: 112%
- viability, T/C [10]: 129%
- viability, T/C [11]: 118%
- viability, T/C [12]: 97.9%
- viability, T/C [13]: 95.6%
- viability, T/C [14]: 78.6%
- viability, T/C [15]: 101%
- viability, T/C [16]: 99.9%
- viability, T/C [17]: 119%
- viability, T/C [18]: 100%
- viability, T/C [19]: 28.5%
- viability, T/C [20]: 27.9%
- viability, T/C [21]: 23.8%
- viability, T/C [22]: 30%
- viability, T/C [23]: 29.6%
- viability, T/C [24]: 10.9%
- viability, T/C [25]: 0.18%
- viability, T/C [26]: 3.34%
- viability, T/C [27]: 0.25%
- viability, T/C [28]: 0.17%
- viability, T/C [29]: 2%
- viability, T/C [30]: 0.82%
- viability, T/C [31]: 0.77%
- viability, T/C [32]: 0.21%
- viability, T/C [33]: 0.12%
- viability, T/C [34]: 0.11%
- viability, T/C [35]: 2.22%
- viability, T/C [36]: 3.15%
- viability, T/C [37]: 0.12%
- viability, T/C [38]: 0.14%
- viability, T/C [39]: 0.25%
- viability, T/C [40]: 0.17%
- viability, T/C [41]: 1.47%
- viability, T/C [42]: 0.3%

Further lines, with some results ahead:

- IC50 (curve of compound): 73.9 nM and 34.7 nM
SMILES: NC(=O)C(=Cn1cnc(-c2cc(C(F)(F)F)cc(C(F)(F)F)c2)n1)c1cncnc1
- viability, T/C (compound 0.00949 µM): 79.6% and 73.7%
- viability, T/C (compound 0.03 µM): 67.2% and 49.7%
- viability, T/C (compound 0.0949 µM): 46.6% and 36.5%
- viability, T/C (compound 0.3 µM): 14.8% and 11.8%
- viability, T/C (compound 0.949 µM): 6.97% and 7.35%
- viability, T/C (compound 3 µM): 4.72% and 4.92%

- IC50 (curve of compound): > 1000 nM
SMILES: CCN1CCN(Cc2ccc(Nc3ncc(F)c(-c4cc(F)c5nc(C)n(C(C)C)c5c4)n3)nc2)CC1
- viability, T/C (compound 0.00316 µM): 82.6% and 81.5%
- viability, T/C (compound 0.01 µM): 82.6% and 92.4%
- viability, T/C (compound 0.0316 µM): 83.9% and 84.2%
- viability, T/C (compound 0.1 µM): 69.7% and 84.1%
- viability, T/C (compound 0.316 µM): 66.8% and 75.8%
- viability, T/C (compound 1 µM): 50.5% and 56.2%
